Experimental findings from US9296748B2, “Pyridinones” (Boehringer Ingelheim International GmbH, priority 2013, dated 2016) are described below.

The target of this assay is BRD4-BD1 (Homo sapiens (Human), UniProt O60885). The experiment in a line: BRD4-H4 Tetraacetylated Peptide Inhibition AlphaScreen. It counts as binding. As to conditions: GST-BRD4-BD1 (aa 44-168), biotinylated Acetyl-Histone H4 peptide. As for the experimental part:
Compounds are diluted in serial dilution 1:5 in assay buffer from 10 mM stock in DMSO (100 μM start concentration) in white OptiPlate-384 (PerkinElmer). […] Subsequently, 6 μl of premixed AlphaLISA Glutathione Acceptor Beads and AlphaScreen Streptavidin Donor Beads from PerkinElmer (in assay buffer at a concentration of 10 μg/ml each) are added and the samples are incubated for 30 min at RT in the dark (shaking 300 rpm). Afterwards, the signal is measured in a PerkinElmer Envision HTS Multilabel Reader using the AlphaScreen protocol from PerkinElmer. […] Negative control values are entered as low basis value when using the software GraphPad Prism for calculations. Furthermore, a positive control (probe molecule JQ1+ with protein/peptide mix) is pipetted. Determination of IC50 values are carried out using GraphPad Prism 3.03 software (or updates thereof).
In general terms: Bead proximity is the source of the signal in Alpha formats.
In the case of `Cc1cc(-c2nc3cnc(N4CCOC[C@@H]4C)cc3n2[C@@H](C)c2ccccn2)cn(C)c1=O` [II-29], inhibition was half-maximal at 130 nM (IC50).
`Cc1nc(-c2nc3ccccc3n2Cc2ccccc2)cn(C)c1=O` [Example I-21] returned an IC50 of 201 nM.
On to `Cc1cc(-c2nc3ccc(C4CCN(C)C(=O)C4)cc3n2[C@@H](C)c2ccccc2)cn(C)c1=O` (some centres unmarked) [Example I-35], for which the IC50 was 23 nM.
Under `Cc1cc(-c2nc3cnc(C4CCOCC4)cc3n2[C@H](C)c2ccccc2)cn(C)c1=O` [II-45] stands 95 nM.
For `Cc1cc(-c2nc3cnc(Cl)cc3n2Cc2ccccc2)cn(C)c1=O` [II-7, 5-(1-Benzyl-6-chloro-1H-imidazo[4,5-c]pyridin-2-yl)-1,3-dimethyl-1H-pyridin-2-one], the IC50 worked out at 175 nM.
In turn, `Cc1cc(-c2nc3ccc(N4CCN(C)CC4)cc3n2Cc2ccccc2)c[nH]c1=O` [Example I-7] yielded an IC50 of 95 nM.
Under `COC[C@H](C)n1c(-c2cc(C)c(=O)n(C)n2)nc2ccc(N3CCOC[C@@H]3C)cc21` [Example I-36] stands 65 nM; under `COC[C@H](C)n1c(-c2cc(C)c(=O)n(C)c2)nc2ccc(C(C)C)cc21` [Example I-28], 174 nM.
Under `Cc1cc(-c2nc3cc(N4CCN(C)CC4)cnc3n2Cc2ccccc2)cn(C)c1=O` [IV-6] stands 23 nM; under `Cc1cc(-c2nc3cc(C4CCOCC4)cnc3n2Cc2ccccc2)cn(C)c1=O` [IV-7], 16 nM.
Compound `Cn1cc(-c2nc3ccccc3n2Cc2ccccc2)ccc1=O` [Example I-2] gave a half-inhibitory concentration (IC50) of 1540 nM.
`Cc1nc(-c2nc3cnc(N4CCN(C)CC4)cc3n2Cc2ccccc2)cn(C)c1=O` [II-10] came in with an IC50 of 45 nM.
Regarding `Cc1cc(-c2nc3cc(N4CCOCC4)cnc3n2Cc2ccccc2)cn(C)c1=O` [IV-5], the IC50 stood at 32 nM.
`Cc1cc(-c2nc3cnc(OC4CCOC4)cc3n2[C@@H](C)c2ccccn2)cn(C)c1=O` (some centres unmarked) [II-39] registered an IC50 of 211 nM.
Compound `Cn1cc(-c2nc3ccc(N4CCOCC4)cc3n2Cc2ccccc2)ncc1=O` [Example I-19] showed an IC50 of 298 nM.
For the compound `Cc1cc(-c2nc3ccc(C4CCOCC4)cc3n2[C@@H](C)c2ccccn2)cn(C)c1=O` [Example I-27], the IC50 came to 103 nM.
In the case of `Cn1cc(-c2nc3ccccc3n2Cc2ccccc2)ncc1=O` [Example I-18], the IC50 came out at 1110 nM.
Under `CCCOc1ccc2nc(-c3cc(C)c(=O)n(C)c3)n([C@@H](C)c3ccccc3)c2n1` [III-6] stands 108 nM; under `Cc1cc(-c2nc3cnc(N4CCOCC4)cc3n2Cc2ccccc2)cn(C)c1=O` [II-3, 5-(1-Benzyl-6-morpholin-4-yl-1H-imidazo[4,5-c]pyridin-2-yl)-1,3-dimethyl-1H-pyridin-2-one], 18 nM; under `Cc1cc(-c2nc3ccc(C4CCOCC4)cc3n2Cc2ccccn2)cn(C)c1=O` [Example I-25], 72 nM.
`Cc1cc(-c2nc3ccc(C(C)C)cc3n2[C@@H](C)c2ccccn2)cn(C)c1=O` [Example I-29]: the IC50 was 180 nM.
Consider `Cc1cc(-c2nc3cnc(C4CCOCC4)cc3n2[C@@H](C)c2ccccc2)nn(C)c1=O` [II-25], for which the 50% inhibitory concentration (IC50) was 8 nM.
The figure for `Cc1cc(-c2nc3cnc(N4CCOCC4)cc3n2[C@@H](C)c2ccccc2)cn(C)c1=O` [II-19] is 27 nM.
With `Cn1cc(-c2nc3ccc(N4CCOCC4)cc3n2Cc2ccccc2)ccc1=O` [Example I-4], the IC50 came out at 515 nM.
As for `Cc1nc(-c2nc3ccc(N4CCN(C)CC4)cc3n2Cc2ccccc2)cn(C)c1=O` [Example I-14], 36 nM corresponded to half-maximal inhibition (IC50).
With `Cc1cc(-c2nc3cnc(C4CCOCC4)cc3n2[C@@H](C)c2ccccc2)cn(C)c1=O` [II-26], it took 16 nM to reach half-maximal inhibition (IC50).
With `Cc1cc(-c2nc3ccc(OC(C)C)nc3n2[C@@H](C)c2ccccn2)nn(C)c1=O` [III-4], half-maximal inhibition (IC50) was put at 118 nM.
With `Cc1cc(-c2nc3cnc(N(C)C)cc3n2Cc2ccccc2)cn(C)c1=O` [II-9], the midpoint of inhibition, the IC50, lay at 30 nM.
As to `Cc1cc(-c2nc3cnc(N4CCOCC4)nc3n2[C@@H](C)c2ccccc2)cn(C)c1=O` [IV-15], the IC50 was determined as 17 nM.

In general, IC50 refers to the concentration that inhibits the measured activity by half.
